# Assay results reported in patent US11178873B2, “Cyclic N-carboxamide compounds useful as herbicides” (FMC CORPORATION, priority 2015, dated 2021).
# Tests used:
# Type in all cases: in vivo
# Settings in all cases: 1000 g ai/ha, 0 to 100 scale, 0 no effect, 100 complete control
# [1] = test system: barnyardgrass (Echinochloa crus-galli); assay: Test A preemergence, barnyardgrass
# Description: (§1) Seeds of plant species selected from barnyardgrass (Echinochloa crus-galli), crabgrass, large (large crabgrass, Digitaria sanguinalis), kochia (Kochia scoparia), ragweed (common ragweed, Ambrosia elatior), morningglory (Ipomoea spp.), velvetleaf (Abutilon theophrasti), ryegrass, Italian (Italian ryegrass, Lolium multiflorum), foxtail, giant (giant foxtail, Setaria faberii), wheat (Triticum aestivum), corn (Zea mays), and pigweed (Amaranthus retroflexus), were planted into a blend of loam soil and sand and treated preemergence with a directed soil spray using test chemicals formulated in a non-phytotoxic solvent mixture which included a surfactant. At the same time, plants selected from these crop and weed species and also blackgrass (Alopecurus myosuroides), and galium (catchweed bedstraw, Galium aparine), were planted in pots containing the same blend of loam soil and sand and treated with postemergence applications of test chemicals formulated in the same manner. Plants ranged in height from 2 to 10 cm and were in the one- to two-leaf stage for the postemergence treatment. Treated plants and untreated controls were maintained in a greenhouse for approximately 10 d, after which time all treated plants were compared to untreated controls and visually evaluated for injury. Plant response ratings, summarized in Table A, are based on a 0 to 100 scale where 0 is no effect and 100 is complete control. A dash (-) response means no test result.
# kochia (Kochia scoparia) [2] = assay: Test A preemergence, kochia
# Description: as §1
# [3] = test system: ragweed (common ragweed, Ambrosia elatior); assay: Test A preemergence, ragweed
# Description: as §1
# [4] = test system: ryegrass, Italian (Italian ryegrass, Lolium multiflorum); assay: Test A preemergence, ryegrass, Italian
# Description: as §1
# [5] = test system: foxtail, giant (giant foxtail, Setaria faberii); assay: Test A preemergence, foxtail, giant
# Description: as §1
# [6] = test system: pigweed (Amaranthus retroflexus); assay: Test A preemergence, pigweed
# Description: as §1
# [7] = test system: barnyardgrass (Echinochloa crus-galli); assay: Test A postemergence, barnyardgrass
# Description: as §1
# kochia (Kochia scoparia) [8] = assay: Test A postemergence, kochia
# Description: as §1
# [9] = test system: ragweed (common ragweed, Ambrosia elatior); assay: Test A postemergence, ragweed
# Description: as §1
# [10] = test system: ryegrass, Italian (Italian ryegrass, Lolium multiflorum); assay: Test A postemergence, ryegrass, Italian
# Description: as §1
# [11] = test system: foxtail, giant (giant foxtail, Setaria faberii); assay: Test A postemergence, foxtail, giant
# Description: as §1
# [12] = test system: wheat (Triticum aestivum); assay: Test A postemergence, wheat
# Description: as §1
# corn (Zea mays) = assay: Test A postemergence, corn
# Description: as §1
# [13] = test system: pigweed (Amaranthus retroflexus); assay: Test A postemergence, pigweed
# Description: as §1
# [14] = test system: blackgrass (Alopecurus myosuroides); assay: Test A postemergence, blackgrass
# Description: as §1
# [15] = test system: galium (catchweed bedstraw, Galium aparine); assay: Test A postemergence, galium
# Description: as §1
SMILES,"Plant response rating, Barnyardgrass [1]","Plant response rating, Kochia (kochia (Kochia scoparia) [2])","Plant response rating, Ragweed [3]","Plant response rating, Ryegrass, Italian [4]","Plant response rating, Foxtail, Giant [5]","Plant response rating, Pigweed [6]","Plant response rating, Barnyardgrass [7]","Plant response rating, Kochia (kochia (Kochia scoparia) [8])","Plant response rating, Ragweed [9]","Plant response rating, Ryegrass, Italian [10]","Plant response rating, Foxtail, Giant [11]","Plant response rating, Wheat [12]","Plant response rating, Corn (corn (Zea mays))","Plant response rating, Pigweed [13]","Plant response rating, Blackgrass [14]","Plant response rating, Galium [15]"
Cc1ccc(C2CCC(=O)N2C(=O)Nc2ccccc2F)cc1 (stereo not shown) [Compound 19],40,20,0,0,40,70,0,0,0,0,0,0,0,0,0,0
CN1CC(c2ccc(C(F)(F)F)cc2)N(C(=O)Nc2cccc(F)c2F)C1=O (stereo not shown) [Compound 14],20,0,0,0,70,0,0,0,0,0,0,0,0,0,0,0
Cc1ccc(C2CCC(=O)N2C(=O)Nc2ccccc2C(F)(F)F)cc1 (stereo not shown) [Compound 20],0,0,0,0,20,0,0,0,0,0,0,0,0,0,0,0
Cc1ccc(C2CCC(=O)N2C(=O)Nc2ccc(F)c(F)c2F)cc1 (stereo not shown) [Compound 21],20,0,0,0,70,0,0,0,0,0,0,0,0,0,0,0
